Measured values as given in US6809065B2, “Herbicide containing substituted pyrazole derivative as active ingredient” (SDS Biotech K.K., priority 2001, dated 2004).

Legend:
Chenopodium album [1] = assay: Upland field foliage treatment (Test Example 1); type: in vivo; conditions: foliage treatment 14th day after sowing, wettable powder, 1 kg active ingredient per hectare, evaluated 21st day after application
How it was run: (§1)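 Foliar spray, 1 kg a.i./ha, wettable powder in water, applied 14 d post-sowing; seeds covered by ~1 cm upland soil. Index scoring at 21 d. Higher index = stronger weed control; for crops, lower index = greater safety.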

Digitaria adscendens [2] = assay: Upland field foliage treatment (Test Example 1); type: in vivo; conditions: foliage treatment 14th day after sowing, wettable powder, 1 kg active ingredient per hectare, evaluated 21st day after application
How it was run: as §1

Setaria viridis [3] = assay: Upland field foliage treatment (Test Example 1); type: in vivo; conditions: foliage treatment 14th day after sowing, wettable powder, 1 kg active ingredient per hectare, evaluated 21st day after application
How it was run: as §1

Stellaria media [4] = assay: Upland field foliage treatment (Test Example 1); type: in vivo; conditions: foliage treatment 14th day after sowing, wettable powder, 1 kg active ingredient per hectare, evaluated 21st day after application
How it was run: as §1

soybean (Glycine max) [5] = assay: Upland field foliage treatment (Test Example 1), crop; type: in vivo; conditions: foliage treatment 14th day after sowing, 1 kg active ingredient per hectare, evaluated 21st day, lower index = higher safety
How it was run: as §1

[6] = tested on: wheat (Triticum aestivum); assay: as above; type: in vivo; conditions: foliage treatment 14th day after sowing, 1 kg active ingredient per hectare, evaluated 21st day, lower index = higher safety
How it was run: as §1

Chenopodium album [7] = assay: Upland soil treatment (Test Example 2); type: in vivo; conditions: soil surface treatment next day after sowing, wettable powder, 1 kg active ingredient per hectare, evaluated 21st day after application
How it was run: (§2)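 Upland soil in pots was sown with weed and crop seeds, covered with about 1 cm soil, and next day sprayed on the surface with wettable-powder formulation at 1 kg active ingredient per hectare. Effects were scored by index on day 21; higher index means stronger weed control, lower index means better crop safety.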

Digitaria adscendens [8] = assay: Upland soil treatment (Test Example 2); type: in vivo; conditions: soil surface treatment next day after sowing, wettable powder, 1 kg active ingredient per hectare, evaluated 21st day after application
How it was run: as §2

Setaria viridis [9] = assay: Upland soil treatment (Test Example 2); type: in vivo; conditions: soil surface treatment next day after sowing, wettable powder, 1 kg active ingredient per hectare, evaluated 21st day after application
How it was run: as §2

Stellaria media [10] = assay: Upland soil treatment (Test Example 2); type: in vivo; conditions: soil surface treatment next day after sowing, wettable powder, 1 kg active ingredient per hectare, evaluated 21st day after application
How it was run: as §2

soybean (Glycine max) [11] = assay: Upland soil treatment (Test Example 2), crop; type: in vivo; conditions: soil surface treatment next day after sowing, 1 kg active ingredient per hectare, evaluated 21st day, lower index = higher safety
How it was run: as §2

[12] = tested on: wheat (Triticum aestivum); assay: Upland soil treatment (Test Example 2), crop; type: in vivo; conditions: soil surface treatment next day after sowing, 1 kg active ingredient per hectare, evaluated 21st day, lower index = higher safety
How it was run: as §2

Echinochloa spp. = assay: Paddy field treatment (Test Example 3); type: in vivo, Echinochloa crusgalli; conditions: paddy pot, submerged 4 cm, dropped on water surface 10th day after transplantation, 1 kg active ingredient per hectare, evaluated 21st day
How it was run: (§3)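 Paddy soil in pots was puddled and flooded to 4 cm, weeds were sown, and two-leaf Koshihikari rice was transplanted at 3 cm depth. Ten days after transplanting, wettable powder was applied onto the water surface at 1 kg active ingredient per hectare. Herbicidal effect was index-scored 21 days later.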

Ammannia multiflora = assay: Paddy field treatment (Test Example 3); type: in vivo; conditions: paddy pot, submerged 4 cm, dropped on water surface 10th day after transplantation, 1 kg active ingredient per hectare, evaluated 21st day
How it was run: as §3

Monochoria vaginalis = assay: Paddy field treatment (Test Example 3); type: in vivo; conditions: paddy pot, submerged 4 cm, dropped on water surface 10th day after transplantation, 1 kg active ingredient per hectare, evaluated 21st day
How it was run: as §3

Scirpus juncoides = assay: Paddy field treatment (Test Example 3); type: in vivo; conditions: paddy pot, submerged 4 cm, dropped on water surface 10th day after transplantation, 1 kg active ingredient per hectare, evaluated 21st day
How it was run: as §3

[13] = tested on: rice (Oryza sative, variety: Koshihikari); assay: Paddy field treatment (Test Example 3), crop; type: in vivo, Oryza sativa; conditions: transplanted rice two-leaf period, water surface treatment 10th day after transplantation, 1 kg active ingredient per hectare, evaluated 21st day, lower index = higher safety
How it was run: as §3

Compound | Herbicidal activity Chenopodium album (Chenopodium album [1]) | Herbicidal activity Digitaria adscendens (Digitaria adscendens [2]) | Herbicidal activity Setaria viridis (Setaria viridis [3]) | Herbicidal activity Stellaria media (Stellaria media [4]) | Herbicidal activity Glycine max (soybean (Glycine max) [5]) | Herbicidal activity Triticum aestivum [6] | Herbicidal activity Chenopodium album (Chenopodium album [7]) | Herbicidal activity Digitaria adscendens (Digitaria adscendens [8]) | Herbicidal activity Setaria viridis (Setaria viridis [9]) | Herbicidal activity Stellaria media (Stellaria media [10]) | Herbicidal activity Glycine max (soybean (Glycine max) [11]) | Herbicidal activity Triticum aestivum [12] | Herbicidal activity Echinochloa spp. (Echinochloa spp.) | Herbicidal activity Ammannia multiflora (Ammannia multiflora) | Herbicidal activity Monochoria vaginalis (Monochoria vaginalis) | Herbicidal activity Scirpus juncoides (Scirpus juncoides) | Herbicidal activity Oryza sativa [13]
COC=C(CCn1cc(C)c(-c2ccccc2)n1)C(=O)OC [Compound 47] | 4 (herbicidal effect of not less than 70% by weight and less than 90% by weight) | 3 (herbicidal effect of not less than 50% by weight and less than 70% by weight) | 3 (herbicidal effect of not less than 50% by weight and less than 70% by weight) | 4 (herbicidal effect of not less than 70% by weight and less than 90% by weight) | 0 (herbicidal effect of not less than 0% by weight and less than 10% by weight) | 0 (herbicidal effect of not less than 0% by weight and less than 10% by weight) | 4 (herbicidal effect of not less than 70% by weight and less than 90% by weight) | 4 (herbicidal effect of not less than 70% by weight and less than 90% by weight) | 4 (herbicidal effect of not less than 70% by weight and less than 90% by weight) | 3 (herbicidal effect of not less than 50% by weight and less than 70% by weight) | 0 (herbicidal effect of not less than 0% by weight and less than 10% by weight) | 0 (herbicidal effect of not less than 0% by weight and less than 10% by weight) | 3 (herbicidal effect of not less than 50% by weight and less than 70% by weight) | 2 (herbicidal effect of not less than 30% by weight and less than 50% by weight) | 2 (herbicidal effect of not less than 30% by weight and less than 50% by weight) | 3 (herbicidal effect of not less than 50% by weight and less than 70% by weight) | 0 (herbicidal effect of not less than 0% by weight and less than 10% by weight)
COC=C(Cn1nc(-c2cc(C)ccc2C)c(Cl)c1C)C(=O)OC [Compound 19] | 5 (herbicidal effect of not less than 90% by weight) | 5 (herbicidal effect of not less than 90% by weight) | 4 (herbicidal effect of not less than 70% by weight and less than 90% by weight) | 4 (herbicidal effect of not less than 70% by weight and less than 90% by weight) | 0 (herbicidal effect of not less than 0% by weight and less than 10% by weight) | 0 (herbicidal effect of not less than 0% by weight and less than 10% by weight) | 4 (herbicidal effect of not less than 70% by weight and less than 90% by weight) | 5 (herbicidal effect of not less than 90% by weight) | 4 (herbicidal effect of not less than 70% by weight and less than 90% by weight) | 5 (herbicidal effect of not less than 90% by weight) | 0 (herbicidal effect of not less than 0% by weight and less than 10% by weight) | 0 (herbicidal effect of not less than 0% by weight and less than 10% by weight) | 5 (herbicidal effect of not less than 90% by weight) | 5 (herbicidal effect of not less than 90% by weight) | 5 (herbicidal effect of not less than 90% by weight) | 5 (herbicidal effect of not less than 90% by weight) | 1 (herbicidal effect of not less than 10% by weight and less than 30% by weight)
COC=C(Cn1nc(-c2ccccc2)cc1SC)C(=O)OC [Compound 37] | 5 (herbicidal effect of not less than 90% by weight) | 4 (herbicidal effect of not less than 70% by weight and less than 90% by weight) | 4 (herbicidal effect of not less than 70% by weight and less than 90% by weight) | 5 (herbicidal effect of not less than 90% by weight) | 0 (herbicidal effect of not less than 0% by weight and less than 10% by weight) | 0 (herbicidal effect of not less than 0% by weight and less than 10% by weight) | 4 (herbicidal effect of not less than 70% by weight and less than 90% by weight) | 5 (herbicidal effect of not less than 90% by weight) | 5 (herbicidal effect of not less than 90% by weight) | 5 (herbicidal effect of not less than 90% by weight) | 0 (herbicidal effect of not less than 0% by weight and less than 10% by weight) | 0 (herbicidal effect of not less than 0% by weight and less than 10% by weight) | 3 (herbicidal effect of not less than 50% by weight and less than 70% by weight) | 3 (herbicidal effect of not less than 50% by weight and less than 70% by weight) | 3 (herbicidal effect of not less than 50% by weight and less than 70% by weight) | 3 (herbicidal effect of not less than 50% by weight and less than 70% by weight) | 0 (herbicidal effect of not less than 0% by weight and less than 10% by weight)
COC=C(Cn1nc(-c2cccc(C)c2)c(Br)c1C)C(=O)OC [Compound 26] | 5 (herbicidal effect of not less than 90% by weight) | 5 (herbicidal effect of not less than 90% by weight) | 4 (herbicidal effect of not less than 70% by weight and less than 90% by weight) | 5 (herbicidal effect of not less than 90% by weight) | 1 (herbicidal effect of not less than 10% by weight and less than 30% by weight) | 0 (herbicidal effect of not less than 0% by weight and less than 10% by weight) | 4 (herbicidal effect of not less than 70% by weight and less than 90% by weight) | 4 (herbicidal effect of not less than 70% by weight and less than 90% by weight) | 4 (herbicidal effect of not less than 70% by weight and less than 90% by weight) | 4 (herbicidal effect of not less than 70% by weight and less than 90% by weight) | 0 (herbicidal effect of not less than 0% by weight and less than 10% by weight) | 0 (herbicidal effect of not less than 0% by weight and less than 10% by weight) | 5 (herbicidal effect of not less than 90% by weight) | 5 (herbicidal effect of not less than 90% by weight) | 5 (herbicidal effect of not less than 90% by weight) | 4 (herbicidal effect of not less than 70% by weight and less than 90% by weight) | 0 (herbicidal effect of not less than 0% by weight and less than 10% by weight)
